Assay results published in a compilation of properties of binary mixtures (doi:10.1016/j.jct.2022.106789).

Assay: xn = mol fraction of the nth substance listed
Details: 100 kPa

CCCCCC[N+](CC)(CC)CC.O=S(=O)([N-]S(=O)(=O)C(F)(F)F)C(F)(F)F + CC(C)O
Details	speed of sound, 293.15 K [m/s]	speed of sound, 298.15 K [m/s]	speed of sound, 303.15 K [m/s]	speed of sound, 308.15 K [m/s]	speed of sound, 313.15 K [m/s]	viscosity, 293.15 K [mPa·s]	viscosity, 298.15 K [mPa·s]	viscosity, 303.15 K [mPa·s]	viscosity, 308.15 K [mPa·s]	viscosity, 313.15 K [mPa·s]
x2 = 0	1295.3	1282.7	1270.4	1258.3	1246.7	241	187	138	105	80.7
x2 = 0.096	–	1277.1	1264.8	1252.7	–	–	136	109	90	–
x2 = 0.2045	1282.6	–	1257.8	1246	1233.9	108	–	83.1	68.1	55.3
x2 = 0.3101	1273.6	–	–	1236.2	1224	74.1	–	–	49.3	41.4
x2 = 0.4056	1264	1250.9	1237.9	–	1213.3	55.3	50.3	44.3	–	30
x2 = 0.4987	1253.3	–	1226.8	–	1201.7	42.1	–	31.8	–	21.9
x2 = 0.5916	1240.8	1227.6	1214.5	–	–	30.7	25.3	20.9	–	–
x2 = 0.7088	1220.1	1206.5	1192.8	1179.4	1166	17.9	14.4	12.1	10.4	9.33
x2 = 0.8015	1198	1184	1170.3	–	1142.5	11.2	8.83	7.01	–	4.94
x2 = 0.9193	1167	1151.8	1136.7	–	1106.5	5.24	4.36	3.67	–	2.38
x2 = 0.9503	1161	–	–	–	–	–	–	–	–	–

CCCCCC[n+]1ccn(C)c1.O=S(=O)([O-])C(F)(F)F + CC(C)O
Details	speed of sound, 293.15 K [m/s]	speed of sound, 298.15 K [m/s]	speed of sound, 303.15 K [m/s]	speed of sound, 308.15 K [m/s]	speed of sound, 313.15 K [m/s]	viscosity, 293.15 K [mPa·s]	viscosity, 298.15 K [mPa·s]	viscosity, 303.15 K [mPa·s]	viscosity, 308.15 K [mPa·s]	viscosity, 313.15 K [mPa·s]
x2 = 0	1376.7	1364.8	1353.2	1342.1	1330.9	195	151	116	91.1	74
x2 = 0.1282	1366.5	–	1343	1331.5	1319.9	129	–	80	61.9	51.6
x2 = 0.2454	1353	–	1329.3	1316.1	1305.8	87.1	–	57.5	44.6	37.2
x2 = 0.3506	1338.3	1326	–	1301	1290.9	60	48.3	–	31.8	27
x2 = 0.469	1319.3	–	1294	1281.8	1270.2	37.8	–	27.2	21	18
x2 = 0.5728	1299.1	1286	1273.8	1260.3	1247.8	24.5	20.4	17.1	14.2	11.9
x2 = 0.6564	1280	1266.1	1253.7	1240.2	1227.4	16.1	13.6	11.3	9.6	8.4
x2 = 0.7574	1251.3	1237.2	1223.1	1209.3	1195.7	9.63	8.06	6.67	5.85	5.11
x2 = 0.8422	1221.4	1207.1	1192.8	1178.4	1163.3	5.86	4.82	4.21	3.59	3.13
x2 = 0.9231	–	1175.5	1159.6	1142.7	–	–	3.15	2.68	2.34	–

CC(C)O + CCCCCC[N+](CC)(CC)CC.O=S(=O)([N-]S(=O)(=O)C(F)(F)F)C(F)(F)F
x1 = 1
Details	speed of sound [m/s]	viscosity [mPa·s]
293.15 K	1155.7	2.42
313.15 K	1085.8	1.34

CC(C)O + CCCCCC[n+]1ccn(C)c1.O=S(=O)([O-])C(F)(F)F
x1 = 1
Details	speed of sound [m/s]	viscosity [mPa·s]
293.15 K	1155.7	2.42
303.15 K	1120.8	1.73
313.15 K	1085.8	1.34
